# Where two headings read alike, the source gives them in different places.
# Molecular target: calcium channel (Rattus norvegicus, UniProt P22002)
# Experiment: Calcium channel binding assay similar to Example 3, 3[H]-diltiazem as competing radioligand
# Procedure: […] […] The reactions were carried out in 50 mM TRIS-HCl (pH 7.7) at 25° C. for 60 minutes. The reaction was terminated by rapid vacuum filtration onto glass fiber filters. […] Molecular Pharmacology 25, 235-241 (1984)).
# [1] = Binding Assay No. 2 (Table 2), 3[H]-diltiazem radioligand
# Chain of calcium channel (P22002 whole entry): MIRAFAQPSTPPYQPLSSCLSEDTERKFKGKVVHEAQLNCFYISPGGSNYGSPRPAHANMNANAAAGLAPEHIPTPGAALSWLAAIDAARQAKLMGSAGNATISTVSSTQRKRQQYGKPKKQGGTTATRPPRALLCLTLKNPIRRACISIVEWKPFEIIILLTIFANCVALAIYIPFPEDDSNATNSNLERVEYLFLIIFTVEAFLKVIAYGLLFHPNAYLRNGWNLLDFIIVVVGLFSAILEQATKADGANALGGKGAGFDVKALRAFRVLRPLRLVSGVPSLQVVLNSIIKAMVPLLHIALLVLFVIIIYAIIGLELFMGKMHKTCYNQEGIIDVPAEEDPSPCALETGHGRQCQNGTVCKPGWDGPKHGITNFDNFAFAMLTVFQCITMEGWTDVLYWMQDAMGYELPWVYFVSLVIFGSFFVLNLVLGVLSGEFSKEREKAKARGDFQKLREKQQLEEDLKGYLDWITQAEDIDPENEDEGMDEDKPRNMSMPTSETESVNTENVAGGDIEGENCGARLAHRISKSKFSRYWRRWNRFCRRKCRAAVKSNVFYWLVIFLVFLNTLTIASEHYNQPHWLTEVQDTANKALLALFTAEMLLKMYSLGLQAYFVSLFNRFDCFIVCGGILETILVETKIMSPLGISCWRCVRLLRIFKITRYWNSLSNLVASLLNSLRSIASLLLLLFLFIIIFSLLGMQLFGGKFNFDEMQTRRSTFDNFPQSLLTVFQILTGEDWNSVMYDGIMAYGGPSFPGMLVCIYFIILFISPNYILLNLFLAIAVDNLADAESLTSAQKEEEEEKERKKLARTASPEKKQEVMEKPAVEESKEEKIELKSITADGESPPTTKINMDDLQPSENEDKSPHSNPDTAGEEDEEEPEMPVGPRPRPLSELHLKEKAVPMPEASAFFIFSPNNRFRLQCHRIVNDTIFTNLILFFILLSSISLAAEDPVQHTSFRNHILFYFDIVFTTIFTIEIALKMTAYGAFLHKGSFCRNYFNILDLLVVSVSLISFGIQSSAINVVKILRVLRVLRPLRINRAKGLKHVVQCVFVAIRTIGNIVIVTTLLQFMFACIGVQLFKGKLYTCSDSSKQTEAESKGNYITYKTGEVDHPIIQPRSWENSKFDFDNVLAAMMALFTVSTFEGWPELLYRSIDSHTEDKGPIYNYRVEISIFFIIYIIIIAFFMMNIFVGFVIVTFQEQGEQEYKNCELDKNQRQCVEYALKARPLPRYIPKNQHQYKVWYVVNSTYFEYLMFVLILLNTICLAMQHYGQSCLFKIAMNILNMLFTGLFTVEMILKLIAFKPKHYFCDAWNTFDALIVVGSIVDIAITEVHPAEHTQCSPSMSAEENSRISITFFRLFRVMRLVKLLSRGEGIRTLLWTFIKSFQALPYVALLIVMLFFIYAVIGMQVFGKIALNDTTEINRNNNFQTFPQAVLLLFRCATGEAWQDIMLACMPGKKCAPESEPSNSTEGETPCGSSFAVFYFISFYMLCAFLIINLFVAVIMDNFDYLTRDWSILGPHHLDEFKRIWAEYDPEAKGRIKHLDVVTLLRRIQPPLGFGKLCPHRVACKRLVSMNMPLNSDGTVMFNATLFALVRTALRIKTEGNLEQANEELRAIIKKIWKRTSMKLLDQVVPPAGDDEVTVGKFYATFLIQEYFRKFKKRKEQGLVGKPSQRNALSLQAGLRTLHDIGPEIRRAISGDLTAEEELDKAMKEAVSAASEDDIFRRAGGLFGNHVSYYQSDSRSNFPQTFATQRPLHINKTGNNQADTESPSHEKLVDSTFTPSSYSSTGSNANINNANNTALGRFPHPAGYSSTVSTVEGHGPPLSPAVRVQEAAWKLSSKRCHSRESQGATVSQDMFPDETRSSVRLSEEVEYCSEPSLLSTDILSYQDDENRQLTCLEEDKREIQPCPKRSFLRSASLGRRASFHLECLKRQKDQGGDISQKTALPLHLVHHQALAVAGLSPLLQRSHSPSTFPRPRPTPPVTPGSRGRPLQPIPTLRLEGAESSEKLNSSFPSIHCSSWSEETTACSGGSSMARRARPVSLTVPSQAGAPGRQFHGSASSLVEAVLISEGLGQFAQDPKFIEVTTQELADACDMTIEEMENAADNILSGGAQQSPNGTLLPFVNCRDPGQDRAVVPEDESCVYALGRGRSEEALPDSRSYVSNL
structure (smiles),measurement,setting,value
"COCCOCCOCCOCCOCCOc1ccc(CCN(C)CCCC(C#N)(c2ccc(OC)c(OC)c2)C(C)C)cc1OC (stereo not shown) [mPEG5-O-Verapamil, O-mPEG5-verapamil]",IC50,[1],852 nM
"COCCOCCOCCOCCOCCOCCOCCOc1ccc(CCN(C)CCCC(C#N)(c2ccc(OC)c(OC)c2)C(C)C)cc1OC (stereo not shown) [mPEG7-O-Verapamil, O-mPEG7-verapamil]",IC50,[1],1130 nM
"COCCOCCOCCOc1ccc(CCN(C)CCCC(C#N)(c2ccc(OC)c(OC)c2)C(C)C)cc1OC (stereo not shown) [mPEG3-O-Verapamil, O-mPEG3-verapamil]",IC50,[1],541 nM
"COCCOCCOCCOCCOCCOCCOc1ccc(CCN(C)CCCC(C#N)(c2ccc(OC)c(OC)c2)C(C)C)cc1OC (stereo not shown) [mPEG6-O-Verapamil, O-mPEG6-verapamil]",IC50,,349 nM

# Reference: patent US9132200B2, “Oligomer-calcium channel blocker conjugates” (NEKTAR THERAPEUTICS, priority 2007, dated 2015)
